Reference: patent publication US7649002B2, “(3,5-dimethylpiperidin-1yl)(4-phenylpyrrolidin-3-yl)methanone derivatives as MCR4 agonists” (Pfizer Inc, priority 2004, dated 2010)

Molecular target: T1, human MCR5 receptor (Homo sapiens, UniProt P33032)
T1 construct: expressed in transfected cells
Assay: MCR5 standard functional assay (Protocol D): CHO-K1-MC5R-CRE-β-lactamase reporter
Type: cell-based
Details: for EC50: Protocol D
Description: These cell lines were engineered using protocols akin to those outlined by Zaccolo et al (Zaccolo, M., (2000) Nature, 2(1); 25-29). Compound-induced activation of the MCR5 or MCR4 receptors in these two cell lines stimulated the production, and intracellular accumulation, of the enzyme β-lactamase. The quantity of β-lactamase enzyme produced was directly proportional to the degree to which the test compound activated the MCR5 or MCR4 receptors present on these cells and was quantified using the P-lactamase gene reporter analysis kit that is commercially available from Invitrogen Life Technologies. An in-depth description of this technology and assay protocols are available from the Invitrogen web site (www.invitrogen.com). The protocol listed below provides a summary of that assay methodology. The quantity of β-lactamase enzyme produced by compound-induced activation of the MCR5 or MCR4 receptors expressed in these cell lines was quantified using a LjI Biosystems Analyst™ HT 96.384 plate reader set to excite at a wave length of 405 nm, and measure the energy emitted at wave lengths of 450 nm and 530 nm. Cellular responses were quantified by dividing the measured energy emitted at a wavelength of 450 nm by the measured energy emitted at a wavelength of 530 nm. […] CCF4-AM was dissolved in 100% DMSO to give a final solution concentration of 1 mM. This solution was termed Solution A. Probenecid was dissolved in 200 mM NaOH to give a final solution concentration of 200 mM. This solution was termed Solution D. Composition of the β-lactamase assay dye solution: for 1072 μL of assay dye solution combine: 12 μL of Solution A, 60 μL of Solution B, 925 μL of Solution C and 75 μL of Solution D. […] Cells were grown in T225 vent cap flasks containing 50 ml of growth medium and maintained in a cell incubator at a temperature of 37° C. and in an environment containing 5% CO2. The composition of the growth medium for the CHO-K1-MC5R-CRE-β-lactamase was 90% v/v DMEM supplemented with; Glutamax-1, 25 mM HEPES, 10% v/v foetal calf serum (FCS), 1 mM sodium pyruvate, 0.1 mM non essential amino acids and 800 μg/ml genetic in. For the CHO-K1-MC4R-CRE-β-lactamase this growth media was further supplemented with […] Zeocin. Cells were harvested when they reached 80-90% confluency by first removing the existing growth medium and then washing with PBS that had been pre-warmed to a temperature of 37° C. This PBS was then removed and 5 ml of cell dissociation fluid added to the flask. These cells were incubated for 5 minutes in a cell incubator set at a temperature of 37° C. and in an environment containing 5% CO2 to detach the cells. When cells were detached, pre-warmed growth media was added, the cells re-suspended and mixed gently to achieve a single cell suspension by pipetting. This cell suspension was then used for experimentation, or transferred into a new T225 flask to perpetuate the cell culture. On the first day of the assay cells were harvested as described above. […] For each assay the cell plates were then retuned to a cell incubator maintained at a temperature of 37° C. and in an environment containing 5% CO2 overnight before performing the assay on the second assay day. […] For the MCR4 improved functional assay methodology the solution of cyclohexamide was not added. Subsequently, 10 μL of the test compound solution was transferred to the assay plate. […] After this incubation period the plate was removed from the incubator, 10 μL of the […] assay dye solution was added to each well and then the plate returned to the cell incubator.

T1 sequence (P33032 whole entry): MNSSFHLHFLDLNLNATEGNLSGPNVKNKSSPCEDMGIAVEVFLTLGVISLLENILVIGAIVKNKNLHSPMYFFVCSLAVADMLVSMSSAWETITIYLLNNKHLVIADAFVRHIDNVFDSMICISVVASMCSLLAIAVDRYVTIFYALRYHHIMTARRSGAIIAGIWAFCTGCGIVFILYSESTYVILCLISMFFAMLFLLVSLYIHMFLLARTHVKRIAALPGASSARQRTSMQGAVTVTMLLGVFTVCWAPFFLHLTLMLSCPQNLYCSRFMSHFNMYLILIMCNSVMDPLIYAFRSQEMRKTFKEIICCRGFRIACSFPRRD

SMILES | Selectivity MCR5/MCR4 (Table 5, MCR4 by Protocol C) | EC50 (Table 5) [µM] | Selectivity MCR5/MCR4 (Table 6, MCR4 by Protocol E) | EC50 (Table 6) [µM]
C[C@@H]1CN(C(=O)[C@@H]2CN(C(C)(C)C)C[C@H]2c2ccc(F)cc2F)C[C@H](C)[C@@]1(O)c1ccccc1 [Example 1, (3R,4R,5S)-1-{[(3S,4R)-1-tert-Butyl-4-(24-difluorophenyl)pyrrolidin-3-yl]carbonyl}-3,5-dimethyl-4-phenylpiperidin-4-ol] | 268 | 6.71 | 285 | –
C[C@@H]1CN(C(=O)[C@@H]2CN(C(C)(C)C)C[C@H]2c2ccc(F)cc2F)C[C@H](C)[C@@]1(O)c1ccccc1.Cl [Example 5, (3R,4R,5S)-1-{[(3S,4R)-1-tert-Butyl-4-(2,4-difluorophenyl)pyrrolidin-3-yl]carbonyl}-3,5-dimethyl-4-phenylpiperidin-4-ol hydrochloride] | – | – | 285 | 2.74
CC(C)N1C[C@@H](C(=O)N2C[C@@H](C)[C@](O)(c3ccccc3)[C@@H](C)C2)[C@H](c2ccc(F)cc2F)C1.Cl [Example 6, (3R,4R,5S)-1-{[(3S,4R)-4-(2,4-Difluorophenyl)-1-isopropylpyrrolidin-3-yl]carbonyl}-3,5-dimethyl-4-phenylpiperidin-4-ol hydrochloride] | – | – | 83 | 1.59
C[C@@H]1CN(C(=O)[C@@H]2CNC[C@H]2c2ccc(F)cc2F)C[C@H](C)[C@@]1(O)c1ccc(F)cc1.Cl [Example 12, (3R,4R,5S)-1-{[(3S,4R)-4-(2,4-difluorophenyl)pyrrolidin-3-yl]carbonyl}-4-(4-fluorophenyl)-3,5-dimethylpiperidin-4-ol hydrochloride] | – | – | 267 | 20
C[C@@H]1CN(C(=O)[C@@H]2CN(C(C)(C)C)C[C@H]2c2ccc(F)cc2F)C[C@H](C)[C@@]1(O)c1ccc(Cl)cc1.Cl [Example 13, (3R,4R,5S)-1-{[(3S,4R)-1-tert-butyl-4-(2,4-difluorophenyl)pyrrolidin-3-yl]carbonyl}-4-(4-chlorophenyl)-3,5-dimethylpiperidin-4-ol hydrochloride] | – | – | 624 | 16.9
C[C@@H]1CN(C(=O)[C@@H]2CN(c3ccccn3)C[C@H]2c2ccc(F)cc2F)C[C@H](C)[C@@]1(O)c1ccccc1.Cl [Example 31, (3R,4R,5S)-1-{[(3S,4R)-4-(2,4-difluorophenyl)-1-pyridin-2-ylpyrrolidin-3-yl]carbonyl}-3,5-dimethyl-4-phenylpiperidin-4-ol hydrochloride] | – | – | 266 | 0.956
C[C@@H]1CN(C(=O)[C@@H]2CN(c3cccnn3)C[C@H]2c2ccc(F)cc2F)C[C@H](C)[C@@]1(O)c1ccccc1.Cl [Example 35, (3R,4R,5S)-1-{[(3S,4R)-4-(2,4-difluorophenyl)-1-pyridazin-3-ylpyrrolidin-3-yl]carbonyl}-3,5-dimethyl-4-phenylpiperidin-4-ol hydrochloride] | – | – | 13,333 | 20
